Series [1] has as its system A549-luc-C8 cells. In words: Assessment of cytotoxicity (MTS Assay), Example 4. The class given is cell-based, human. The note with it: 24 hours, up to 5 mg/mL. The protocol:
(§1) Cell culture. Culturing of human epithelial lung cell line A549-luc-C8, stably expressing luciferase, was performed according to the protocol provided by Caliper LifeSciences. A549-luc-C8 cells were grown in RPMI-1640 supplemented with 10% v/v heat inactivated FBS and 1% v/v Penicillin/streptomycin at 37° C. in a humidified air atmosphere containing 5% CO2.
(§2) Assessment of cytotoxicity (MTS Assay). […] A549-luc-C8 cells were grown as described in the transfection experiments. Cells were treated with the TAT, dTAT or PEI for approximately 24 hours. […] The cells were incubated for 3 hours at 37° C. in the 5% CO2 incubator. The absorbance of each well was then measured at 490 nm using a microtiter plate reader (SpectraMax, M25, Molecular Devices Corp., CA) to determine cell viability.

Series [2] deals with A549 cells. Kind of series: Cytotoxicity Assay (MTS Assay), Example 1 and CPPs. The class given is cell-based, human. The following applies: A549 cells, MTS. The protocol:
(§3) Cell Culture. Culturing of human epithelial lung cell line A549 was performed according to the protocol provided by the American Type Culture Collection. A549 was grown in F-12K supplemented with 10% v/v FBS and 1% v/v Penicillin/streptomycin at 37° C. in a humidified air atmosphere containing 5% CO2.
(§4) Cytotoxicity Assay (MTS Assay). […] A549 cells were grown as described in the transfection experiments. Cells were treated with the samples for approximately 24 hours. […] The cells were incubated for 3 hours at 37° C. in the 5% CO2 incubator. The absorbance of each well was then measured at 490 nm using a microtiter plate reader (SpectraMax, M25, Molecular Devices Corp., CA) to determine cell viability.

A short description of series [3]: Cytotoxicity Assay (MTS Assay), Example 1 and CPPs. The class given is cell-based, human. The following applies: human. Here is the method:
as §3, §4

Series [4] concerns A549 cells. In words: In vitro cell transfection (pGL3 luciferase gene expression), Example 1 method. It is filed as cell-based, human. The following applies: 1 day after transfection, 75, 150, 300 mM CaCl2, varying N/P ratios. Here is the method:
Particles of nano-sized TAT-Ca complexes were synthesized by rapidly adding and stirring 10 μL of either (0.1 μg/μL) pDNA or (30-50 nM) siRNA to 15 μL (1 μg/μL) of the TAT solution. To this solution, 15 μL of CaCl2 of known molarity (e.g. 0.3 M) was added and mixed by vigorous pipetting followed by 20-30 minutes incubation at room temperature or at 4° C. prior to use.
Preparation of PEI/pDNA Complexes. Polyethylenimine-DNA Complexes were prepared by adding 10 μl (0.1 μg/μL) of pDNA solution to 15 μL (N/P ratio of 5 or 10) polyethylenimine (PEI) solution drop-wise while stirring. Complexes were incubated at room temperature for 20-30 minutes before dilution 1.7 times (15 μL) with the appropriate buffer (e.g. nuclease-free water or CaCl2). Complexes were freshly prepared before each individual experiment.
In Vitro Cell Transfection Studies. A549 cells were trypsinized, counted and diluted to a concentration of approximately 80,000 cells/mL. Then 0.1 mL of that dilution was added to each well of a 96-well plate and the cells were incubated in a humidified atmosphere of 5% CO2 incubator at 37° C. for 24 hours. Immediately before transfection, the cells were washed once with PBS and 100 μl sample (20% of complex to 80% of serum free cell culture medium) was added to each well. Cells were incubated with the complexes for 5 hours. The transfection agent was then removed by aspiration and 100 μL of fresh serum medium was added followed by further incubation. The Luciferase Assay System from Promega was used to determine gene expression following the manufacturer's recommended protocol. The light units were normalized against protein concentration in the cells extracts, which were measured using the Coomassie Plus™ Protein Assay (Thermo Scientific). The transfection results were expressed as Relative Light Units (RLU) per mg of cellular protein.

For series [5], the system named is A549 cells.
Protocol: (§5) Cytoxicity Assay. Cytotoxicity of the complexes was determined by the CellTiter 96® Aqueous Cell Proliferation Assay kit (MTS assay) from Promega. A549 cells were plated on 96-well plates with approximately 8,000 cells/well and incubated in a humid 5% CO2 incubator at 37° C. After 18-24 hours incubation, the medium was removed and the cells were washed with 100 μl serum free medium. Cells were treated with the samples for 12-24 hours. The serum free medium were then removed and replaced with a mixture of 100 μl fresh culture medium and 20 μl MTS reagent solution. The cells were incubated for 1-4 hours at 37° C. in 5% CO2 incubator. Cell viability was assessed by measuring the absorbance at 490 nm by plate reader (SpectraMax M5) and expressed as the ratio of the A490 of cells treated with inhibitors over the control samples.
The nature of series [6]: Assessment of cytotoxicity (MTS Assay), Example 4. It is filed as cell-based, human. The note with it: human, A549-luc-C8 cells, up to 5 mg/mL. The protocol:
as §1, §2

Series [7] concerns Balb/C mice. The note with it: 200 μL tail vein, Balb/C mouse. The protocol: Assessment of toxicity in vivo. Stock solutions of 0.3 M CaCl2, 10% Glucose, and 174 mg/ml dTAT were prepared. Non-silencing control siRNA (Dharmacon; Sense: […]tt; SEQ ID NO 16, Antisense: […]tt; SEQ ID NO 17) was dissolved in nuclease-free water (61.5 nM). The dTAT/siRNA complexes were prepared in 1.5 ml microcentrifuge tubes by mixing stock solutions (at concentrations indicated above). Formulation 1 used 15 μL of dTAT, 10 μL siRNA, 25 μL Glucose, and 5 μl CaCl2. Each ingredient was added to the previous component(s) and mixed by pipetting between each addition. Four of these formulas were individually prepared and kept at 4° C. for 20 minutes, then kept at room temperature for 5 minutes prior to injection. Remaining formulations (2-10) were prepared by a serial 1:2 dilution of stock siRNA solution and stock dTAT solution following the same experimental protocol as described above. The dTAT/siRNA complexes (volume=260 μl) were prepared for each individual animal and each 0.2 mL injection volume contained approximately the following amounts of dTAT peptide (mg/ml): 40, 20, 10, 5, 2.5, 1.25, 0.64, 0.32, 0.16, 0. Each formulation was administered via 200 μL injection into the tail vein of 12 week old male Balb/C mice (10 animals total).
In vivo dose escalating toxicity study. […] A dose escalating study was conducted in an effort to establish a lethal dose (LD50) for the dTAT peptide. For these studies, only a minimal amount of siRNA was included so that animal responses would be indicative of the toxicity of dTAT. Animals were administered the formulations via tail vein injection (200 μL) at doses up to 1,000 mg/kg of dTAT (Table 5).

Series [8] relates to A549 cells. Kind of series: Cytotoxicity assay (MTS), Example 2. The following applies: 46.9 mM CaCl2 only or in the complex.
Protocol: as §5

This is an account of results in patent publication US20110287547A1, “NUCLEIC ACID DELIVERY COMPOSITIONS AND METHODS” (priority 2008, published 2011).

Values after ≈ are worked out from the molar mass of the structure shown. Where two headings read alike, the source gives them in different places. Where a SMILES comes first, the peptide text is derived from it.

For orientation: IC50 means the concentration at which inhibition is half-maximal. Low values mean higher potency, high ones lower potency.

Turning to `N=C(N)NCCC[C@H](NC(=O)[C@H](CCCNC(=N)N)NC(=O)[C@H](CCCNC(=N)N)NC(=O)[C@H](CCC(N)=O)NC(=O)[C@H](CCCNC(=N)N)NC(=O)[C@H](CCCNC(=N)N)NC(=O)[C@H](CCCCN)NC(=O)[C@H](CCCCN)NC(=O)[C@@H](N)CCCNC(=N)N)C(N)=O` [TAT], in series [1], the cytotoxicity result was “almost no evidence of cytotoxicity”. In series [2], the cytotoxic effects entry is given as “no evidence of cytotoxic effects”.
Compound `CSCC[C@H](NC(=O)[C@H](CCCCN)NC(=O)[C@H](Cc1c[nH]c2ccccc12)NC(=O)[C@H](CCCCN)NC(=O)[C@@H](N)CCCCN)C(=O)N[C@@H](CCCNC(=N)N)C(=O)N[C@@H](CCCNC(=N)N)C(=O)N[C@@H](CC(N)=O)C(=O)N[C@@H](CCC(N)=O)C(=O)N[C@@H](Cc1ccccc1)C(=O)N[C@@H](Cc1c[nH]c2ccccc12)C(=O)N[C@H](C(=O)N[C@@H](CCCCN)C(=O)N[C@H](C(=O)N[C@@H](CCC(N)=O)C(=O)N[C@@H](CCCNC(=N)N)C(=O)NCC(=O)O)C(C)C)C(C)C` [Alp] (H-KKWKMRRNQFWVKVQRG-OH) had an IC50 at 24 h in series [3] of approximately 2140 µg/mL (≈ 942 µM).
Turning to H-RKKRRHRRR-NH2 [TAT2], in series [4], the “added CaCl2 concentration at which complexes showed a higher level of gene expression” value (“added CaCl2 concentration” for short) was 150 mM.
For the compound protamine, in series [5], the “IC50 (cytotoxicity)” value stood at 890 µg/mL.
For the compound H-RKKRRQHRRR-NH2 [TAT3], in series [4], the “added CaCl2 concentration” value amounted to 150 mM.
In the case of H-RRKRRQHRRR-NH2 [TAT4], the “added CaCl2 concentration” value in series [4] turned out to be 150 mM.
Still for that read-out and setting: with H-RKKRRQRRRHRRKKR-NH2 [TAT5] the figure was 300 mM.
`N=C(N)NCCC[C@H](NC(=O)[C@H](CCCCN)NC(=O)[C@H](CCCCN)NC(=O)[C@H](CCCNC(=N)N)NC(=O)[C@H](CCCNC(=N)N)NC(=O)[C@H](Cc1c[nH]cn1)NC(=O)[C@H](CCCNC(=N)N)NC(=O)[C@H](CCCNC(=N)N)NC(=O)[C@H](CCCNC(=N)N)NC(=O)[C@H](CCC(N)=O)NC(=O)[C@H](CCCNC(=N)N)NC(=O)[C@H](CCCNC(=N)N)NC(=O)[C@H](CCCCN)NC(=O)[C@H](CCCCN)NC(=O)[C@@H](N)CCCNC(=N)N)C(=O)O` [dTAT] (H-RKKRRQRRRHRRKKR-OH) showed a half-inhibitory concentration (IC50) at 24 h in series [6] of approximately 4000 µg/mL (≈ 1820 µM). The “Toxicity/Behavioral Effects” value was “Normal” in series [7] (dTAT 0.16 mg/mL, total dose 3.90 mg/Kg, siRNA 0.03 nM); “Normal” in series [7] (dTAT 0.32 mg/mL, total dose 7.81 mg/Kg, siRNA 0.07 nM); “Normal” in series [7] (dTAT 0.64 mg/mL, total dose 15.63 mg/Kg, siRNA 0.14 nM); “Normal” in series [7] (dTAT 1.25 mg/mL, total dose 31.25 mg/Kg, siRNA 0.29 nM); “Normal” in series [7] (dTAT 2.5 mg/mL, total dose 62.5 mg/Kg, siRNA 0.59 nM); “Normal” in series [7] (dTAT 5 mg/mL, total dose 125 mg/Kg, siRNA 1.18 nM). In addition, the “Toxicity/Behavioral Effects” value is given as “Normal” in series [7] (dTAT 10 mg/mL, total dose 250 mg/Kg, siRNA 2.36 nM) and “Normal” in series [7] (dTAT 20 mg/mL, total dose 500 mg/Kg, siRNA 4.73 nM).
Take `[Ca+2].[Cl-].[Cl-]` [CaCl2, Calcium chloride]: in series [8], the cytotoxicity entry is “did not show cytotoxicity”.
